# PMC7564829, “Potent Broad-Spectrum Antibacterial Activity of Amphiphilic Peptides against Multidrug-Resistant Bacteria” (Microorganisms, 2020)
# Assays:
# [1] = system: E. coli 1F28; experiment: Cytoplasmic membrane potential (DiSC3(5)); format: cell-based; settings: 0 to 128 μg/mL, 60 min
# Description: A fluorescent probe DiSC3(5) (Aladdin, Shanghai, China) was utilized to evaluate the effect of WRK-12 on bacterial membrane potential. E. coli 1F28 cells were probed with 3,3′-dipropylthiadicarbocyanine iodide (DiSC3(5), 0.5 μM) for 30 min, and then treated with WRK-12 (0 to 128 μg/mL) or colistin (128 μg/mL) for 60 min. Subsequently, the dissipated membrane potential was determined by monitoring the fluorescence intensity (λexcitation = 622 nm, λemission = 670 nm) using a Microplate reader (Tecan, Männedorf, Switzerland).
# [2] = in 0.01 M PBS or water; compared among four active AMPs
# [3] = system: S. aureus 215 (cfr + LZD^R); experiment: microbe, parasite or virus in culture; format: cell-based; settings: S. aureus 215 (cfr + LZD^R)
# Description: (§1) Experiments were performed with two biological replicates.
# [4] = system: MDR E. coli B2 (mcr-1 + blaNDM-5); experiment: microbe, parasite or virus in culture; format: cell-based
# Description: as §1
# [5] = system: S. enteritidis ATCC 13076; experiment: microbe, parasite or virus in culture; format: cell-based
# Description: as §1
# [6] = system: E. coli ATCC 25922; experiment: microbe, parasite or virus in culture; format: cell-based
# Description: as §1
# [7] = system: S. aureus ATCC 29213; experiment: microbe, parasite or virus in culture; format: cell-based
# Description: as §1
# [8] = system: E. coli 1F28; experiment: LPS, lipids or NAC inhibition assay (MIC); format: cell-based
# Description: Lipopolysaccharides (LPS), lipids or NAC inhibition assay.
# [9] = system: MRSA T144; experiment: MIC/MBC, broth micro-dilution; format: cell-based, Staphylococcus aureus; settings: MRSA T144
# Description: as §1
# [10] = system: E. coli B3-1 (tet(X4)); experiment: MIC/MBC, broth micro-dilution; format: cell-based; settings: E. coli B3-1 (tet(X4))
# Description: as §1
# [11] = system: E. faecalis A4 (VRE); experiment: MIC/MBC, broth micro-dilution; format: cell-based; settings: E. faecalis A4 (VRE)
# Description: as §1
# [12] = system: E. coli 1F28 (tet(X4)); experiment: MIC/MBC, broth micro-dilution; format: cell-based; settings: E. coli 1F28 (tet(X4))
# Description: as §1
# [13] = system: E. coli 1N31; experiment: MIC, tigecycline-resistant clinical isolate; format: cell-based; settings: E. coli 1N31, tigecycline-resistant clinical isolate; broth micro-dilution
# Description: as §1
# [14] = system: E. coli 1N28; experiment: MIC, tigecycline-resistant clinical isolate; format: cell-based; settings: E. coli 1N28, nasal swab, tigecycline-resistant clinical isolate; broth micro-dilution
# Description: as §1
# [15] = system: E. coli 2A19; experiment: MIC, tigecycline-resistant clinical isolate; format: cell-based; settings: E. coli 2A19, tigecycline-resistant clinical isolate; broth micro-dilution
# Description: as §1
# [16] = system: Shigella 1F25; experiment: MIC, tigecycline-resistant clinical isolate; format: cell-based; settings: Shigella 1F25, feces, broth micro-dilution
# Description: as §1
# [17] = system: E. coli 1F16; experiment: MIC, tigecycline-resistant clinical isolate; format: cell-based; settings: E. coli 1F16, feces, tigecycline-resistant clinical isolate; broth micro-dilution
# Description: as §1
# [18] = system: E. coli 1F31; experiment: MIC, tigecycline-resistant clinical isolate; format: cell-based; settings: E. coli 1F31, tigecycline-resistant clinical isolate; broth micro-dilution
# Description: as §1
# [19] = system: E. coli 2W25; experiment: MIC, tigecycline-resistant clinical isolate; format: cell-based; settings: E. coli 2W25, water, tigecycline-resistant clinical isolate; broth micro-dilution
# Description: as §1
# [20] = system: E. coli 1C1; experiment: MIC, tigecycline-resistant clinical isolate; format: cell-based; settings: E. coli 1C1, dust, tigecycline-resistant clinical isolate; broth micro-dilution
# Description: as §1
# [21] = system: E. coli 1A34; experiment: MIC, tigecycline-resistant clinical isolate; format: cell-based; settings: E. coli 1A34, anal swab, tigecycline-resistant clinical isolate; broth micro-dilution
# Description: as §1
# [22] = target: papain (Carica papaya, UniProt P00784); experiment: Proteolytic stability (residual antibacterial activity by MIC); format: in vitro ADME; settings: papain 10 mg/mL, 1 h preincubation; residual MIC against E. coli 1F28
# papain, sequence (P00784 134-345): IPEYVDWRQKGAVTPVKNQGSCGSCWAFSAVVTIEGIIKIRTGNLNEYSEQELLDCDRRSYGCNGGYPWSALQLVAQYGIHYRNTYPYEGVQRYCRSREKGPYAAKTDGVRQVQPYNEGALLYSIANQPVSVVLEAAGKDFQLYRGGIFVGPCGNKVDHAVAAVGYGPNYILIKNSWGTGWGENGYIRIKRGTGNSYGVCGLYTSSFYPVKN
# Description: (§2) Thermal, pH and proteolytic stability.
# [23] = Hydrophobicity by RP-HPLC (percent acetonitrile at elution); format: physicochemical; settings: acetonitrile in water, 0.1% (v/v) TFA, higher percent = higher hydrophobicity
# Description: All peptides used in this study were synthesized by GL Biochem (Shanghai, China) using a solid phase peptide synthesis (SPPS) method, and their accurate molecular weights were determined by matrix-assisted laser desorption/ionization time-of-flight mass spectrometry (MALDI-TOF MS). The peptide purity (>95%) and retention time were determined by reversed-phase high-performance liquid chromatography (HPLC).
# A collection of tryptophan-rich linear peptides on the basis of MP196 (RWRWRW-NH2) was designed by increasing peptide length or positive charge or hydrophobicity, replacing amino acids and/or N-terminal acetylation (Table 1). These peptides were synthesized via solid-phase peptide synthesis (SPPS), purified by reverse-phase high-performance liquid chromatography (RP-HPLC) (Figure S1) and validated by matrix-assisted laser desorption/ionization time-of-flight mass spectrometry (MALDI-TOF MS) (Figure S2). […] All engineered peptides belong to cationic AMPs, with 3 or 6 net charges. The percentage of acetonitrile at RP-HPLC elution was regarded as a relative measure of peptides’ hydrophobicity. […] The hydrophobicity order was listed as follows: WRK-12 > WL-9 > WR-6 > WV-9 > KW-6 > WKK-12 > WR-12 > MP196 > WK-6.
# [24] = system: E. coli 1F28; experiment: Thermal and pH stability (residual antibacterial activity by MIC); format: physicochemical; settings: residual MIC against E. coli 1F28
# Description: as §2
# [25] = broth micro-dilution CLSI 2018, MHB, 18 h, 37 °C
# [26] = lowest concentration killing 99.9%, plated on MHA
substance,measurement,setting,value
Ac-WRLRWKTRWRLK-NH2 [WRK-12],"membrane potential (ΔΨ), DiSC3(5) fluorescence",[1],significantly dissipated membrane potential
same,solubility,[2],highest solubility
same,MIC,[3]; [25],2 µg/mL
same,MBC,[3]; [26],2 µg/mL
same,MBC,"[4]; MDR B2 (mcr-1 + blaNDM-5, 4 h)",4 µg/mL
same,MIC decrease relative to WL-9,"[4]; MDR E. coli B2, insertion of three positive amino acids in WL-9",4 fold
same,MBC,"[5]; ATCC 13076, 4 h",4 µg/mL
same,MIC,"[5]; ATCC 13076, 18 h",4 µg/mL
same,MBC,"[6]; ATCC 25922, 4 h",8 µg/mL
same,MIC,"[6]; ATCC 25922, 18 h",4 µg/mL
same,MBC,"[7]; ATCC 29213, 4 h",4 µg/mL
same,MIC,"[7]; ATCC 29213, 18 h",4 µg/mL
same,MIC increase with exogenous CL,"[8]; 16 μg/mL CL, E. coli 1F28",16 fold
same,MIC increase with exogenous PG,"[8]; 16 μg/mL PG, E. coli 1F28",16 fold
same,effect of exogenous LPS on antibacterial activity,"[8]; LPS from E. coli O111:B4, 0 to 128 μg/mL, MIC against E. coli 1F28, chequerboard broth microdilution",weakened WRK-12 activity in a dose-dependent manner
same,MIC increase with ROS scavenger NAC,"[8]; NAC 2.5 mM, E. coli 1F28, three independent experiments",6 fold
same,effect of exogenous PE on antibacterial activity,"[8]; PE 0 to 16 μg/mL, E. coli 1F28",mildly impaired WRK-12 activity
same,MIC,[9]; [25],2 µg/mL
same,MBC,[9]; [26],2 µg/mL
same,MIC,[10]; [25],2 µg/mL
same,MBC,[10]; [26],2 µg/mL
same,MIC,[11]; [25],4 µg/mL
same,MBC,[11]; [26],8 µg/mL
same,MIC,[12]; [25],2 µg/mL
same,MBC,[12]; [26],8 µg/mL
same,MIC,[13],16 µg/mL
same,MIC,[14],8 µg/mL
same,MIC,[15],16 µg/mL
same,MIC,[16],8 µg/mL
same,MIC,[17],4 µg/mL
same,MIC,[18],4 µg/mL
same,MIC,[19],4 µg/mL
same,MIC,[20],4 µg/mL
same,MIC,[21],2 µg/mL
same,proteolytic stability,[22],sensitive
same,"H (hydrophobicity, percent of acetonitrile at HPLC elution)",[23],36.513 percent acetonitrile
same,activity reduction after thermal treatment,"[24]; 121 °C, 1 h",50%
same,activity reduction after pH treatment,"[24]; alkaline environment pH = 12, 1 h, readjusted to pH 7.2",50%
same,remaining antibacterial activity after pH treatment,"[24]; pH 2 to 10 for 1 h, readjusted to pH 7.2",completely retained its activity
same,remaining antibacterial activity after thermal treatment,[24]; treatment under 100 °C for 1 h,completely retained its activity
